Here are results for 6 molecules from patent US20050003367A1, “Methods and compositions for rapid development of screening assays” (priority 2002, published 2005).

Entries after “also recorded” stand apart in the source; their conditions may differ.

For one series, the target named is T1, PPARγ (Homo sapiens, UniProt P37231).
T1 construct: expressed in transfected cells; host or cells: HEK293 7xUAS-β-lactamase line (HEKUASBLA), clone 4G5; The targeting vector was integrated by homologous recombination
T1 sequence (P37231 238-503 limits assumed): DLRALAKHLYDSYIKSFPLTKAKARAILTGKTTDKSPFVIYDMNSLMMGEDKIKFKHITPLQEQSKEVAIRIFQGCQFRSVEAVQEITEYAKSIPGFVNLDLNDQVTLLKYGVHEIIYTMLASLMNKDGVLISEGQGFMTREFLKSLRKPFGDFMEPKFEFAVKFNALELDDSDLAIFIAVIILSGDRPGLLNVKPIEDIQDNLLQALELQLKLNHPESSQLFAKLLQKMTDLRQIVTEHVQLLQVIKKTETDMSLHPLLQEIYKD
Nature of the series: PPARγ Gal4-DBD UAS β-lactamase reporter assay, HEK293 clone 4G5. The series is classed as cell-based. Conditions: 10 μM or 32 μM BADGE 1 h at 37° C. before rosiglitazone 1 nM-10 μM. The method, then: (§1) Unless otherwise noted, β-lactamase reporter expression was determined by plating cells into 96 well plates at approx. 10^5 cells/well, and loading with 1 μM CCF2-AM in Hanks' balanced salt solution (HBSS) containing phenol red at 22 ° C. for a period between 1 and 2 h. For visual determination, an epifluorescence microscope (Zeiss 25CFL) equipped with a 10× Fluor objective was used. The filter set contained a 405/20 exciter, a 420 dichroic mirror, and a 435 long-pass filter (Chroma Technologies, Brattleboro Vt.). Fluorescence was then quantified on a Cytofluor 4000 fluorescence plate reader using 395/12.5 nm excitation and emission was detected via 460/50 (blue) and 535/40 (green) band pass filters. Emission intensities from blank wells containing no cells were subtracted from wells containing cells. Calibration of β-lactamase enzyme levels were determined in cell lysates as described by Zlokarnik et al.(1998) Science 279 84-88. Replicate samples of cells were lysed by three cycles of freeze thawing in PBS. β-Lactamase activity in the lysate was measured from the rate of hydrolysis of 1 nmol of CCF2 in 100 μl in a Cytofluor fluorimeter. […]
Single cells were sorted into 96 well plates and expanded. […] At least 16 h before the assay, cell clones on one copy of the assay plates were stimulated as described above. β-lactamase activity was detected in individual clones as described in Example 6. […]
Background: A reporter such as luciferase makes a cellular process visible.

Series [1] addresses T2, Mineralocorticoid receptor (MR) (Homo sapiens, UniProt P08235).
T2 construct: expressed in transfected cells; host or cells: HEK293 7xUAS-β-lactamase line (HEKUASBLA), clone 1B4. pKI-Gal4-DBD-MR was integrated by homologous recombination
T2 sequence (P08235 726-964 limits assumed): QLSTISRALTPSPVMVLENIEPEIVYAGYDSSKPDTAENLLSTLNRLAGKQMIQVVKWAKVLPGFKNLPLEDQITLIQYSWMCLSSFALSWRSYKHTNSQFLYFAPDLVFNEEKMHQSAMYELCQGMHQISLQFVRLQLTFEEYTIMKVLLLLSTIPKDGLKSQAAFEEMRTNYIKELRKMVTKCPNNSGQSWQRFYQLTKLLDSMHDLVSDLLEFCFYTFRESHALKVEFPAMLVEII
Nature of the series: MR Gal4-DBD UAS β-lactamase reporter assay, HEK/UAS/GAL4-MR clone 1B4. The series is classed as cell-based.

Series [2] concerns the target T3, Vanilloid Receptor-1 (VR1) (Homo sapiens, UniProt Q8NER1).
T3 construct: endogenous in cells; host or cells: HEK-293 clones 5B11 and 5B5
Nature of the series: VR1 calcium response assay in HEK-293 clones (VIPRII, 96-well). The series is classed as cell-based. The conditions noted are these: for IC50: responses to 10 μM capsaicin, capsazepine 0.01-100 μM.

A further series deals with T4, MC4R (Homo sapiens, UniProt P32245).
T4 construct: endogenous in cells; host or cells: HEK 293 P3D8 (4XCRE-β-lactamase reporter) clones, e.g. MC4.49
T4 sequence (P32245 whole entry): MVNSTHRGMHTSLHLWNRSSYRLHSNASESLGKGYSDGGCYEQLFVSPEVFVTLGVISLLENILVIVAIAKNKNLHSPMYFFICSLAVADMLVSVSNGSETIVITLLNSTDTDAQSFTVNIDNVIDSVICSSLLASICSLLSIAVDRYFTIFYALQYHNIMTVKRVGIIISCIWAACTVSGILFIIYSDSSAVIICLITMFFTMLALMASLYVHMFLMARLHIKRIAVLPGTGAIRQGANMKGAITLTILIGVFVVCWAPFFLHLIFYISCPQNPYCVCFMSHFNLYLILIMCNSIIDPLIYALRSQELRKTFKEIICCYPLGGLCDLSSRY
Nature of the series: MC4R CRE β-lactamase reporter assay in HEK 293 (P3D8) MC4 cell lines. The series is classed as cell-based. Conditions: cells pretreated with the MC4 antagonist. The method, then:
as §1
Three out of the eight characterized MC4 cell lines were chosen for further pharmacological characterization that included a dose response curve with NDP-α-MSH. […] The calculated values were consistent with published data. […]

The conditions of series [3]: cited from earlier work.

T3 sequence (Q8NER1 whole entry): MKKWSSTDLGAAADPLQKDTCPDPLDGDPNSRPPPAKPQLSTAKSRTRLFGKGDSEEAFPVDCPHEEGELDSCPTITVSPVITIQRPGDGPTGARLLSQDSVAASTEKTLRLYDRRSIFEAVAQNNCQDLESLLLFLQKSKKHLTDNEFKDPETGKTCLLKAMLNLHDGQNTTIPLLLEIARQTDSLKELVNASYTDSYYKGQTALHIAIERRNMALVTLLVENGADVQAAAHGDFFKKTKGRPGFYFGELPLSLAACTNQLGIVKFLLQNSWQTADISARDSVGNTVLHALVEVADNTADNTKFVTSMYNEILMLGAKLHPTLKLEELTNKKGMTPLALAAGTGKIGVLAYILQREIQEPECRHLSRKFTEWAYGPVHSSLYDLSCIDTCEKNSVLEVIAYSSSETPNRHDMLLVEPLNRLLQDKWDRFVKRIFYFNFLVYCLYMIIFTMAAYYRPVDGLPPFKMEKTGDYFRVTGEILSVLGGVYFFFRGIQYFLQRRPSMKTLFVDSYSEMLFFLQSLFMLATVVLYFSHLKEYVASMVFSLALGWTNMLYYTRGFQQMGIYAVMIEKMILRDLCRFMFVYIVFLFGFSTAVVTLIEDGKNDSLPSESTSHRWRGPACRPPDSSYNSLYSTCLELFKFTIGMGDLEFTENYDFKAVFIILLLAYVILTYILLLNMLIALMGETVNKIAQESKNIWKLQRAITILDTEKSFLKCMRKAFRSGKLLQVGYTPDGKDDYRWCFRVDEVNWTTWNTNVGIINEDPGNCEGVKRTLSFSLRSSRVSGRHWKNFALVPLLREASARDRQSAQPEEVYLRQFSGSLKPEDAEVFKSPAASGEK

For `CC(C)(c1ccc(OCC2CO2)cc1)c1ccc(OCC2CO2)cc1` (centres unmarked) [BADGE], the “inhibition of cell response to rosiglitazone” value on PPARγ is “Inhibition of the cell response to the stimuli”.

As usually defined, the EC50 is the concentration at which the effect is half-maximal. For `C[C@]12CCC(=O)C=C1CC[C@@H]1[C@@H]2[C@@H](O)C[C@@]2(C)[C@H]1CC[C@]2(O)C(=O)CO` [Cortisol], in series [1], the response was half-maximal at 0.004 µM (EC50).

For orientation: IC50 means the point on the concentration scale where inhibition reaches its midpoint. Take `Oc1cc2c(cc1O)CN(C(=S)NCCc1ccc(Cl)cc1)CCC2` [capsazepine]: the “effect on VR1 responses to capsaicin” value in series [2] (50 μM capsazepine, clones 5B11 and 5B5) was “failed to respond to any concentration of capsaicin; also recorded: inhibited”. The IC50 in series [2] (clone 5B5) amounted to 7.1 µM; in series [2] (clone 5B11) it was 12.8 µM.

`C=C(C)[C@]12C[C@@H](C)[C@@]34O[C@](Cc5ccccc5)(O[C@@H]1[C@@H]3C=C(COC(=O)Cc1ccc(O)c(OC)c1)C[C@]1(O)C(=O)C(C)=C[C@@H]41)O2` [resiniferatoxin]: the half-maximal effective concentration (EC50) in series [2] turned out to be 0.427 µM.

As for HS024, at MC4R, the “inhibition of the response to α-MSH or NDP-α-MSH” value is recorded as “inhibited in a concentration-dependant manner”.

Usually pKa stands for the pH at which an ionisable group is half protonated. As to SNARF-4F carboxylic acid, the pKa in series [3] is about 6.4.
